Experimental data reported in US20190160035A1, “METHOD OF TREATMENT” (QBIOTICS LIMITED, priority 2016, published 2019).

Key:
[1] = Example 5: adverse events (VCOG-CTCAE classification); assay type: in vivo, Canis lupus familiaris (dog)
Excerpt: With the exception of swelling and pain, local tissue pathology as a result of treatment (i.e. tumor necrosis) was not considered an adverse event (AE). AEs reported such as transitory post treatment lethargy, listlessness and apathy are generally considered to be the result of the powerful local inflammatory response and systemic activation of the dog's immune response during the treatment response phase. In this study, 72 AEs were identified in 14 event types (see Table 28). The majority of identified AEs (59 out of 72; 82%) were represented by the ‘mild’ VCOG-CTCAE classification Grade 1 with no intervention required. With the exception of dogs C05-T-04 and C05-T-17 (described previously), a level of minimal medical intervention was required in only 3 cases. Dog C05-T-05 was medicated with metronidazole for transient diarrhea reported on Day 14 post-treatment; dog C05-T-07 was medicated with an antibiotic course (amoxicillin/clavulanic acid) for skin pustulation on the ventral abdomen (distant to drug injection site); and dog C05-T-09 was prescribed a prophylactic antibiotic course (cephalexin) on Day 21 on observation by the referral practice of ‘inflamed and angry’ lesion edges and having an impression smear of wound surface with ‘neutrophils and round cells (without granules)’. These findings for dog C05-T-09 of neutrophil presence is perhaps not unexpected due to the mechanism of action of the drug. The dog was reported having normal demeanour at this time. With the exception of the limb swelling in dog C05-T-17 (degranulation reaction), all reported AEs were transient in nature—resolved by 24-48 h post treatment.

[2] = test system: soft tissue sarcoma (STS); experiment: Example 6: treatment of soft tissue sarcoma with intratumoral Compound 1, tumor response; assay type: in vivo, dogs; conditions: per dog, Compound 1 1.0 mg/mL intratumoral, first treatment
Excerpt: Dogs were selected for the study if they met the criteria in Table 1 (Example 1) but where the dog has at least one STS. Study dogs were managed with due regard for their welfare. All animals were client-owned, treated by Australian registered veterinarians, and cases managed under their direct supervision. An enrolled dog could be removed from the study prior to study completion under the following circumstances: • 1. If at any time during the study, in the opinion of the attending veterinarian, the dog's welfare is at risk due to non-response of the tumor to Compound 1 treatment or due to a serious adverse event, the veterinarian could elect to withdraw the dog from the study. Following withdrawal, the dog's attending veterinarian could then administer supportive treatment and veterinary care that they deem is appropriate and in the best interest of the animal. • 2. […]
• 1. […] The total calculated volume of the selected STS was confirmed as ≤12.5 cm3 (determined as ½×length (cm)×width (cm)×depth (cm)). • 5. The calculated dose of drug for the dog was confirmed as ≤0.25 mg Compound 1 per kg at the Day 0 visit (maximum dose of 5 mg Compound 1). • 6. The drug was provided to veterinarians as a 1 mg/mL Compound 1 formulation in ready to use form. • 7. […] Treated tumors were observed regularly and observations recorded at days 1, 7 (+2), 14 (+2) and 28 (+2) days post-treatment. • 10. […]

C/C=C(\C)C(=O)O[C@@H]1[C@@H](C)[C@@]2(O)[C@H]([C@@H]3C(C)(C)[C@]13OC(=O)[C@@H](C)CC)[C@@H]1O[C@]1(CO)[C@@H](O)[C@]1(O)C(=O)C(C)=C[C@H]12 [Compound 1, 12-tigloyl-13-(2-methylbutanoyl)-6,7-epoxy-4,5,9,12,13,20-hexahydroxy-1-tigliaen-3-one]
Number of AEs identified ([1]; 18 cases, 14 event types): 72 | Share of AEs of VCOG-CTCAE Grade 1 ([1]; 59 out of 72): 82% | Apathy: VCOG-CTCAE Grade classification (no. of animals) ([1]; Grade 1): 1 (2) | Bruising at treatment site: VCOG-CTCAE Grade classification (no. of animals) ([1]; Grade 1): 1 (13) | Inappetance: VCOG-CTCAE Grade classification (no. of animals) ([1]; Grade 1): 1 (6) | Lethargy: VCOG-CTCAE Grade classification (no. of animals) ([1]; Grade 1): 1 (5) | Listless: VCOG-CTCAE Grade classification (no. of animals) ([1]; Grade 1): 1 (2) | Local swelling at treatment site: VCOG-CTCAE Grade classification (no. of animals) ([1]; Grade 1): 1 (17) | Pain associated with treatment site: VCOG-CTCAE Grade classification (no. of animals) ([1]; Grade 1): 1 (12) | Polydipsia: VCOG-CTCAE Grade classification (no. of animals) ([1]; Grade 1): 1 (1) | Ringworm: VCOG-CTCAE Grade classification (no. of animals) ([1]; Grade 1): 1 (1) | Transient Diarrhoea: VCOG-CTCAE Grade classification (no. of animals) ([1]; Grade 1): 1 (1) | Vomiting: VCOG-CTCAE Grade classification (no. of animals) ([1]; Grade 1): 1 (2) | Bruising at treatment site: VCOG-CTCAE Grade classification (no. of animals) ([1]; Grade 2): 2 (1) | Cranial abdominal pain: VCOG-CTCAE Grade classification (no. of animals) ([1]; Grade 2): 2 (1) | Inappetance: VCOG-CTCAE Grade classification (no. of animals) ([1]; Grade 2): 2 (1) | Injection site lesion antimicrobial prophylaxis: VCOG-CTCAE Grade classification (no. of animals) ([1]; Grade 2): 2 (1) | Lethargy: VCOG-CTCAE Grade classification (no. of animals) ([1]; Grade 2): 2 (1) | Local swelling at treatment site: VCOG-CTCAE Grade classification (no. of animals) ([1]; Grade 2): 2 (1) | Pain associated with treatment site: VCOG-CTCAE Grade classification (no. of animals) ([1]; Grade 2): 2 (1) | Skin pustulation: VCOG-CTCAE Grade classification (no. of animals) ([1]; Grade 2): 2 (1) | Transient Diarrhoea: VCOG-CTCAE Grade classification (no. of animals) ([1]; Grade 2): 2 (1) | Vomiting: VCOG-CTCAE Grade classification (no. of animals) ([1]; Grade 2): 2 (1) | Apathy: Incidence (%) ([1]; all dogs (18 cases)): 11.1% | Apathy: No. of dogs experiencing this event ([1]; all dogs (18 cases)): 2 | Bruising at treatment site: Incidence (%) ([1]; all dogs (18 cases)): 77.8% | Bruising at treatment site: No. of dogs experiencing this event ([1]; all dogs (18 cases)): 14 | Cranial abdominal pain: Incidence (%) ([1]; all dogs (18 cases)): 5.6% | Cranial abdominal pain: No. of dogs experiencing this event ([1]; all dogs (18 cases)): 1 | Inappetance: Incidence (%) ([1]; all dogs (18 cases)): 38.9% | Inappetance: No. of dogs experiencing this event ([1]; all dogs (18 cases)): 7 | Injection site lesion antimicrobial prophylaxis: Incidence (%) ([1]; all dogs (18 cases)): 5.6% | Injection site lesion antimicrobial prophylaxis: No. of dogs experiencing this event ([1]; all dogs (18 cases)): 1 | Lethargy: Incidence (%) ([1]; all dogs (18 cases)): 33.3% | Lethargy: No. of dogs experiencing this event ([1]; all dogs (18 cases)): 6 | Listless: Incidence (%) ([1]; all dogs (18 cases)): 11.1% | Listless: No. of dogs experiencing this event ([1]; all dogs (18 cases)): 2 | Local swelling at treatment site: Incidence (%) ([1]; all dogs (18 cases)): 100.0% | Local swelling at treatment site: No. of dogs experiencing this event ([1]; all dogs (18 cases)): 18 | Pain associated with treatment site: Incidence (%) ([1]; all dogs (18 cases)): 72.2% | Pain associated with treatment site: No. of dogs experiencing this event ([1]; all dogs (18 cases)): 13 | Polydipsia: Incidence (%) ([1]; all dogs (18 cases)): 5.6% | Polydipsia: No. of dogs experiencing this event ([1]; all dogs (18 cases)): 1 | Ringworm: Incidence (%) ([1]; all dogs (18 cases)): 5.6% | Ringworm: No. of dogs experiencing this event ([1]; all dogs (18 cases)): 1 | Skin pustulation: Incidence (%) ([1]; all dogs (18 cases)): 5.6% | Skin pustulation: No. of dogs experiencing this event ([1]; all dogs (18 cases)): 1 | Transient Diarrhoea: Incidence (%) ([1]; all dogs (18 cases)): 11.1% | Transient Diarrhoea: No. of dogs experiencing this event ([1]; all dogs (18 cases)): 2 | Vomiting: Incidence (%) ([1]; all dogs (18 cases)): 16.7% | Vomiting: No. of dogs experiencing this event ([1]; all dogs (18 cases)): 3 | Time by which reported AEs resolved post treatment ([1]; except limb swelling in dog C05-T-17): 24 to 48 h | Number of AEs of ‘mild’ VCOG-CTCAE Grade 1 (no intervention required) ([1]; out of 72 AEs): 59 | Cases requiring minimal medical intervention ([1]; with the exception of dogs C05-T-04 and C05-T-17): 3 | RECIST classification [2]: PR (partial response (PR, at least 30% decrease in the longest diameter of target lesion))
